Results from PMC1664607 (PLoS Medicine, 2006).
In brackets after ≈: the same amount, converted by molar mass. Where two headings read alike, the source gives them in different places.

What was measured:
S. typhimurium TA1535 = assay: Bacterial reverse mutation (BRM) test; type: cell-based; conditions: S9 mix −; positive control NaN3 0.5 μg/plate
Procedure: The BRM test was performed in accordance with OECD Guideline 471 using Salmonella tyiphimurium TA98, TA100, TA1535, and TA1537, and Escherichia coli WP2 uvrA [11]. Each bacterial strain was pre-cultured at 37 °C for 18 h using a nutrient broth (Nissui Pharmaceutical; http://www.nissui-pharm.co.jp/index_e.html). After adjustment to 2.4 at OD660 nm, each bacterial suspension was added to a test tube containing the designated compound in the absence or presence of rat liver microsome (S9) mix. After a 20-min incubation at 37 °C, top agar was added to each test tube and the contents were poured into minimum essential medium (Oriental Yeast; http://www.oyc.co.jp/e/index.htm). The number of revertants was counted 48 h after incubation at 37 °C.

[1] = tested on: M. tuberculosis ATCC 35822 (H37Rv-H-R); assay: microbe, parasite or virus in culture; type: cell-based; conditions: Mycobacterium tuberculosis, 336 h
[2] = tested on: M. tuberculosis ATCC 35838 (H37Rv-R-R); assay: microbe, parasite or virus in culture; type: cell-based; conditions: Mycobacterium tuberculosis, 336 h
[3] = tested on: M. tuberculosis ATCC 35837 (H37Rv-E-R); assay: microbe, parasite or virus in culture; type: cell-based; conditions: Mycobacterium tuberculosis, 336 h
M. tuberculosis Kurono = assay: Therapeutic efficacy in an experimental mouse model of chronic TB; type: in vivo, ICR mice; conditions: for Dose that could produce a CFU reduction of at least 95%: lung; for Dose that could produce a CFU reduction of at least 95% / Dose groups that showed a significant decrease in pulmonary viable bacterial count when compared with the vehicle control group: once daily for 28 d
[4] = tested on: intracellular M. tuberculosis H37Rv in THP-1 cells; assay: Activity against intracellular mycobacteria, 4-h pulsed exposure; type: cell-based, M. tuberculosis; human THP-1 cells; conditions: further 68-h culture
[5] = tested on: M. tuberculosis ATCC 35812 (Kurono); assay: Susceptibility testing (agar dilution MIC); type: cell-based; conditions: Mycobacterium tuberculosis, ATCC35812, 336 h
[6] = tested on: M. tuberculosis ATCC 35820 (H37Rv-S-R); assay: microbe, parasite or virus in culture; type: cell-based; conditions: Mycobacterium tuberculosis, 336 h
[7] = tested on: M. tuberculosis ATCC 25618 (H37Rv); assay: Susceptibility testing (agar dilution MIC); type: cell-based; conditions: Mycobacterium tuberculosis, 336 h
[8] = Plasma levels in an experimental mouse model of TB; conditions: in vivo, po
CYP2C8/9 = assay: Tolubutamide methylhydroxylation in human liver microsomes; type: in vitro ADME; conditions: 100 μM; 400 μM tolbutamide
[9] = tested on: clinically isolated M. tuberculosis; assay: microbe, parasite or virus in culture; type: cell-based; conditions: Mycobacterium tuberculosis; read-out: MIC90
[10] = mouse, in vivo, po
M. tuberculosis = assay: Activity of the main metabolite (test not described); conditions: metabolite produced in the presence of M. tuberculosis
[11] = 7H11 agar, 37 °C, 14 d, read-out: MIC

In the case of `[N-]=[N+]=[N-].[Na+]` [NaN3, sodium azide], the Revertants/Plate (S. typhimurium TA1535) is reported as 6 174 Revertants/Plate.
`O=[N+]([O-])c1cn2c(n1)OC[C@@H](OCc1ccc(OC(F)(F)F)cc1)C2` [PA-824] gave an MIC [1] of 0.05 µg/mL (≈ 0.139 µM), an MIC [2] of 0.1 µg/mL (≈ 0.278 µM) and an MIC [3] of 0.2 µg/mL (≈ 0.557 µM). The “Log of Viable Counts/Lung” value (M. tuberculosis Kurono; 1.25 mg/kg, 672 h) was 6.905 ± 0.382^c:NS, d:NS, the “Log of Viable Counts/Lung” value (M. tuberculosis Kurono; 2.5 mg/kg, 672 h) was 6.567 ± 0.108^c:NS, d:NS and the “Log of Viable Counts/Lung” value (M. tuberculosis Kurono; 5 mg/kg, 672 h) was 6.329 ± 0.303^c:NS, d:NS. The “Log of Viable Counts/Lung” value (M. tuberculosis Kurono; 10 mg/kg, 672 h) was 6.244 ± 0.728^c:NS, d:NS, the “Log of Viable Counts/Lung” value (M. tuberculosis Kurono; 20 mg/kg, 672 h) was 4.688 ± 0.944^c:**, d:** and the “Log of Viable Counts/Lung” value (M. tuberculosis Kurono; 40 mg/kg, 672 h) was 5.145 ± 0.444^c:**, d:**. For the same compound, the “Activity against intracellular M. tuberculosis H37Rv” value [4] was “poor activity”, the MIC [5] was 0.2 µg/mL (≈ 0.557 µM) and the MIC [6] was 0.2 µg/mL (≈ 0.557 µM). For the same compound, the MIC [7] was 0.2 µg/mL (≈ 0.557 µM).
For `NC(=O)c1cnccn1` [PZA, pyrazinamide], the AUC(0-t) [8] was 197 µg·h/mL, the concentration at 0.083 h [8] was 49600 ± 11200 ng/mL and the concentration at 0.25 h [8] was 59100 ± 14100 ng/mL. For the same compound, the concentration at 0.5 h [8] was 63200 ± 28900 ng/mL, the concentration at 1 h [8] was 60200 ± 18700 ng/mL and the concentration at 2 h [8] was 35500 ± 6450 ng/mL. It also gave a concentration at 4 h [8] of 18400 ± 3090 ng/mL, an AUC(0-t) ([8]; 100 mg/kg) of 198 µg·h/mL and a Cmax ([8]; 100 mg/kg) of 63200 ng/mL. For the same compound, the Tmax ([8]; 100 mg/kg) was 0.5 h, the half-life ([8]; 100 mg/kg) was 1.1 h and the “Log of Viable Counts/Lung” value (M. tuberculosis Kurono; 40 mg/kg, 672 h) was 6.942 ± 0.205^a:NS, b:NS. The “Log of Viable Counts/Lung” value (M. tuberculosis Kurono; 80 mg/kg, 672 h) was 6.168 ± 0.774^a:*, b:NS, the “Log of Viable Counts/Lung” value (M. tuberculosis Kurono; 160 mg/kg, 672 h) was 5.823 ± 0.628^a:**, b:* and the “Log of Viable Counts/Lung” value (M. tuberculosis Kurono; 320 mg/kg, 672 h) was 5.009 ± 0.539^a:**, b:**. For the same compound, the “Dose that could produce a CFU reduction of at least 95%” value (M. tuberculosis Kurono) was 160 mg/kg and the “Dose groups that showed a significant decrease in pulmonary viable bacterial count when compared with the vehicle control group” value (M. tuberculosis Kurono) was 80, 160, and 320 mg/kg.
In the case of `O=c1c(O)c(-c2ccc(O)c(O)c2)oc2cc(O)cc(O)c12` [Quercetin, quercetin], the “Percent of Control” value (CYP2C8/9) is reported as 30.6% of Control.
With `CO[C@H]1/C=C/O[C@@]2(C)Oc3c(C)c(O)c4c(O)c(c(/C=N/N5CCN(C)CC5)c(O)c4c3C2=O)NC(=O)/C(C)=C\C=C\[C@H](C)[C@H](O)[C@@H](C)[C@@H](O)[C@@H](C)[C@H](OC(C)=O)[C@@H]1C` [RFP, rifampicin] the MIC [1] was 0.39 µg/mL (≈ 0.474 µM), the MIC90 [9] was 0.288 µg/mL (≈ 0.35 µM) and the AUC(0-t) ([8]; 5 mg/kg) was 48.2 µg·h/mL. The Cmax ([8]; 5 mg/kg) was 5100 ng/mL, the Tmax ([8]; 5 mg/kg) was 6 h and the MIC [2] was greater than 100 µg/mL. For the same compound, the MIC [3] was 0.2 µg/mL (≈ 0.243 µM), the “Log of Viable Counts/Lung” value (M. tuberculosis Kurono; 1.25 mg/kg once daily for 28 d (4 weeks), mean ± S.D., n = 5) was 7.409 ± 0.201^c:NS, d:NS and the “Log of Viable Counts/Lung” value (M. tuberculosis Kurono; 10 mg/kg once daily for 28 d (4 weeks), mean ± S.D., n = 5) was 3.972 ± 0.596^c:**, d:**. The “Log of Viable Counts/Lung” value (M. tuberculosis Kurono; 20 mg/kg once daily for 28 d (4 weeks), mean ± S.D., n = 5) was 3.279 ± 0.330^c:**, d:**, the “Dose that could produce a CFU reduction of at least 95%” value (M. tuberculosis Kurono) was 3.5 mg/kg and the MIC [5, 11] was 0.39 µg/mL (≈ 0.474 µM). For the same compound, the MIC [6] was 0.78 µg/mL (≈ 0.948 µM), the “Concentration, 0.5 h” value [10] was 3330 ± 870 ng/mL and the “Concentration, 1 h” value [10] was 4490 ± 1040 ng/mL. For the same compound, the “Concentration, 2 h” value [10] was 4520 ± 1900 ng/mL, the “Concentration, 4 h” value [10] was 3820 ± 700 ng/mL and the “Concentration, 6 h” value [10] was 5100 ± 1630 ng/mL. The “Concentration, 16 h” value [10] was 660 ± 260 ng/mL and the MIC [7, 11] was 0.78 µg/mL (≈ 0.948 µM).
With `CN[C@@H]1[C@H](O[C@H]2[C@H](O[C@H]3[C@H](O)[C@@H](O)[C@H](N=C(N)N)[C@@H](O)[C@@H]3N=C(N)N)O[C@@H](C)[C@]2(O)C=O)O[C@@H](CO)[C@H](O)[C@H]1O` [SM, streptomycin] the MIC [1] was 0.78 µg/mL (≈ 1.34 µM), the MIC90 [9] was 2.94 µg/mL (≈ 5.05 µM) and the MIC [2] was 0.78 µg/mL (≈ 1.34 µM). For the same compound, the MIC [3] was 0.78 µg/mL (≈ 1.34 µM), the “Log of Viable Counts/Lung” value (M. tuberculosis Kurono; 20 mg/kg, 672 h) was 6.000 ± 0.553^a:**, b:* and the “Log of Viable Counts/Lung” value (M. tuberculosis Kurono; 40 mg/kg, 672 h) was 6.040 ± 0.361^a:**, b:*. The “Log of Viable Counts/Lung” value (M. tuberculosis Kurono; 80 mg/kg, 672 h) was 5.739 ± 0.309^a:**, b:**, the “Log of Viable Counts/Lung” value (M. tuberculosis Kurono; 160 mg/kg, 672 h) was 5.184 ± 0.461^a:**, b:** and the “Dose that could produce a CFU reduction of at least 95%” value (M. tuberculosis Kurono) was 40 mg/kg. For the same compound, the “Dose groups that showed a significant decrease in pulmonary viable bacterial count when compared with the vehicle control group” value (M. tuberculosis Kurono) was 20, 40, 80, and 160 mg/kg, the MIC [5] was 0.78 µg/mL (≈ 1.34 µM) and the MIC [6] was greater than 100 µg/mL. It also gave an MIC [7] of 1.56 µg/mL (≈ 2.68 µM).
In the case of `Nc1ccc(S(=O)(=O)Nc2ccnn2-c2ccccc2)cc1` [Sulfaphenazole, sulfaphenazole], the “Percent of Control” value (CYP2C8/9) is reported as 25.5% of Control.
For `CC1(COc2ccc(N3CCC(Oc4ccc(OC(F)(F)F)cc4)CC3)cc2)Cn2ccnc2O1` (stereo not shown) [desnitro-imidazooxazole], the “Activity of the main metabolite” value (M. tuberculosis) was “non-active”.
